Laboratory results from paper PMC8843171 (Journal of Enzyme Inhibition and Medicinal Chemistry, 2022).

Tests used:
Test in all cases: stopped-flow CO2 hydrase assay
Type in all cases: biochemical
Details in all cases: read-out: [drawing 1] / 1
[1] = target: T1, hCA VA (Homo sapiens, UniProt P35218)
T1 construct: gene CA5A; recombinant, in-house
Excerpt: stopped-flow CO2 hydrase assay on hCA VA

[2] = target: T2, hCA VB (Homo sapiens, UniProt Q9Y2D0)
T2 construct: gene CA5B; recombinant, in-house
T2 sequence (Q9Y2D0 34-317): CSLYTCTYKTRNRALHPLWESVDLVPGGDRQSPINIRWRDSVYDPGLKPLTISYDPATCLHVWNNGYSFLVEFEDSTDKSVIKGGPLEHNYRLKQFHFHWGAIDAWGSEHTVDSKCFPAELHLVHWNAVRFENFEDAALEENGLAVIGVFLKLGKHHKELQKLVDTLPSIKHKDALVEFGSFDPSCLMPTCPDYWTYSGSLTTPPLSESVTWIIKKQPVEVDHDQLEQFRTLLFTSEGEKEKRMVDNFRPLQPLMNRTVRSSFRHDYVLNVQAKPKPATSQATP
Excerpt: stopped-flow CO2 hydrase assay on hCA VB

[3] = target: T3, hCA VII (Homo sapiens, UniProt P43166)
T3 construct: gene CA7; recombinant, in-house
T3 sequence (P43166 whole entry): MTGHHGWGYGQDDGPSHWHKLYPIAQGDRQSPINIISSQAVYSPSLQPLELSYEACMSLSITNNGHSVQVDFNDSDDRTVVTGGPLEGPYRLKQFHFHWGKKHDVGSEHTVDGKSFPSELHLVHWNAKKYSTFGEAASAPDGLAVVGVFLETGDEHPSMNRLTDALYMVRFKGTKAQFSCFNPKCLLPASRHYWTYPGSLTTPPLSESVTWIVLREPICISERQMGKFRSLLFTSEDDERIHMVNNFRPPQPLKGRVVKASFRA
Excerpt: stopped-flow CO2 hydrase assay on hCA VII

[4] = target: T4, hCA IX (Homo sapiens, UniProt Q16790)
T4 construct: gene CA9; recombinant, in-house
Excerpt: stopped-flow CO2 hydrase assay on hCA IX

[5] = target: T5, hCA I (Homo sapiens, UniProt P00915)
T5 construct: gene CA1; recombinant, in-house
T5 sequence (P00915 2-261): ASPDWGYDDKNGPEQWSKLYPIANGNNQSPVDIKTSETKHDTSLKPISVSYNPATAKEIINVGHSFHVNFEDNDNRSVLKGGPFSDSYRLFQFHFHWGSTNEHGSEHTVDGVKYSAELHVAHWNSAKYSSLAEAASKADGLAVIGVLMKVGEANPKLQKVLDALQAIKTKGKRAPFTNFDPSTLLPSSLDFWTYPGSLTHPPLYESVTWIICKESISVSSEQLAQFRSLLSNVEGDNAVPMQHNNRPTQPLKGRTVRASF
Excerpt: stopped-flow CO2 hydrase assay on hCA I

[6] = target: T6, hCA XIII (Homo sapiens, UniProt Q8N1Q1)
T6 construct: gene CA13; recombinant, in-house
T6 sequence (Q8N1Q1 whole entry): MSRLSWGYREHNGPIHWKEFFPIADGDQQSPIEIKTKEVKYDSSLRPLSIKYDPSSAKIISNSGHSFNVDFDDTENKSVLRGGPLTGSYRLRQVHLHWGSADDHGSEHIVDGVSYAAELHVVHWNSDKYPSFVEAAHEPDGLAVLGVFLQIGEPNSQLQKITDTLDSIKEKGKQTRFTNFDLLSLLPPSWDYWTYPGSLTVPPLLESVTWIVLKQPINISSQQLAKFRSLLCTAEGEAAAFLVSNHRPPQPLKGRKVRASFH
Excerpt: stopped-flow CO2 hydrase assay on hCA XIII

[7] = target: T7, hCA IV (Homo sapiens, UniProt P22748)
T7 construct: gene CA4; recombinant, in-house
T7 sequence (P22748 19-284): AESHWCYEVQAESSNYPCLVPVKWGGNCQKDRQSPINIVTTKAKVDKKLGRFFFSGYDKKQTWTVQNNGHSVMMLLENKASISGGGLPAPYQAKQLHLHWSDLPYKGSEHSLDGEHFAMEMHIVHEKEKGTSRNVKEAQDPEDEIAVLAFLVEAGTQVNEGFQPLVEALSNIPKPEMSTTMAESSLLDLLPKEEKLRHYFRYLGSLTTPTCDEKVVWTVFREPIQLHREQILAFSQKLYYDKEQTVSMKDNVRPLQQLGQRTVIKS
Excerpt: stopped-flow CO2 hydrase assay on hCA IV

[8] = target: T8, hCA II (Homo sapiens, UniProt P00918)
T8 construct: gene CA2; recombinant, in-house
Excerpt: stopped-flow CO2 hydrase assay on hCA II

[9] = target: T9, hCA XII (Homo sapiens, UniProt O43570)
T9 construct: gene CA12; recombinant, in-house
T9 sequence (O43570 25-354): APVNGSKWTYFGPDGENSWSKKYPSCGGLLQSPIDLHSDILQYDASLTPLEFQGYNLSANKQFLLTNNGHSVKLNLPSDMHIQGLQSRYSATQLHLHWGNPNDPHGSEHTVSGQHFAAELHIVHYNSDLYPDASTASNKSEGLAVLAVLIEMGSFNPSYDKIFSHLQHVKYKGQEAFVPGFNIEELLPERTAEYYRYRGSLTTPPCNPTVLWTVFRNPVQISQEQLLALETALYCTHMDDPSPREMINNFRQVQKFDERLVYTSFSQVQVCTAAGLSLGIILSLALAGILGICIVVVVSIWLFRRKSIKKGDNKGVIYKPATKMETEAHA
Excerpt: stopped-flow CO2 hydrase assay on hCA XII

[10] = target: T10, hCA XIV (Homo sapiens, UniProt Q9ULX7)
T10 construct: gene CA14; recombinant, in-house
T10 sequence (Q9ULX7 16-290 limits assumed): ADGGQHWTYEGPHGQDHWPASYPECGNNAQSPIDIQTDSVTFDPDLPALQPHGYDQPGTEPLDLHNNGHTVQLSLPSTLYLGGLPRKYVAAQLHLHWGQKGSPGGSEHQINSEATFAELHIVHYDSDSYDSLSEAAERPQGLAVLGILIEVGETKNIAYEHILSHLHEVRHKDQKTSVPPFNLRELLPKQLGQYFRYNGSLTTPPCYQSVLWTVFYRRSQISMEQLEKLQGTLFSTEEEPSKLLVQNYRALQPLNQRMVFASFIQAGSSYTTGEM
Excerpt: stopped-flow CO2 hydrase assay on hCA XIV

[11] = target: T11, hCA VI (Homo sapiens, UniProt P23280)
T11 construct: gene CA6; recombinant, in-house
T11 sequence (P23280 18-308): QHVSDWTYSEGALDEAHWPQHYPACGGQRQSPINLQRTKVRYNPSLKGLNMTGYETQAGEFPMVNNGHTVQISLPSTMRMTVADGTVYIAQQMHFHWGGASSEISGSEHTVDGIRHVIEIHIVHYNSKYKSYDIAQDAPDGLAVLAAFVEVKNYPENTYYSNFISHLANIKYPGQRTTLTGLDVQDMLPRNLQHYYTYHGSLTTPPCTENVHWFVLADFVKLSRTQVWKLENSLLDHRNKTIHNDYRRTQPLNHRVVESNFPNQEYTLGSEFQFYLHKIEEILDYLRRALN
Excerpt: stopped-flow CO2 hydrase assay on hCA VI

T1 sequence (P35218 39-305): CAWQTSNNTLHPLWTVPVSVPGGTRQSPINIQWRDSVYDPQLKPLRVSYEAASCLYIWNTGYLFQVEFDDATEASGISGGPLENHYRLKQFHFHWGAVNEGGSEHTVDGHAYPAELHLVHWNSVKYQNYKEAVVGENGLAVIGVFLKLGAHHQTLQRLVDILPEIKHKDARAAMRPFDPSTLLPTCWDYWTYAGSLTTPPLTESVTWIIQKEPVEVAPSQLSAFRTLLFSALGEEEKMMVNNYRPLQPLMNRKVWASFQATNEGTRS

- Ki [1]: 7.5 µM
- Ki [2]: 2.8 µM
- Ki [3]: 9.2 µM
- Ki [4]: 6.3 µM
- Ki [5]: 3.3 µM
- Ki [6]: 87 µM
- Ki [7]: 8.8 µM
- Ki [8]: 7.5 µM
- Ki [9]: 8.4 µM
- Ki [10]: 5.9 µM
- Ki [11]: 7 µM
Structure (SMILES): Cc1cnc(C(=O)O)c[n+]1[O-] [compound 1, Acipimox]
